Experimental data from a melting point compilation (Tetko et al.; mined from patent text by program, amines drawn as free bases though some values may be those of a salt).

Row | melting point [°C] | SMILES
1 | 165 to 166 | O=C(O)CCCNC(=O)c1ccccc1SSc1ccccc1C(=O)NCCCC(=O)O
2 | 105 to 107 | CC(C)(C)OC(=O)CON=C1CC(=NOCC(=O)OC(C)(C)C)c2ccccc2-c2ccccc21
3 | 125 to 127 | O=C(O)CCC1CCC(=O)N1 (configuration not stated)
4 | 178 to 180 | N#Cc1cc(F)c(N=C=S)cc1O
5 | 148 to 150 | COc1ccc(Cl)cc1C(=O)c1cc(C(F)(F)F)ccc1NC(=O)OC(C)(C)C
6 | 161 | CCN(CC)CCNc1ccc(C2C(C(=O)OC)=C(C)NC(C)=C2C(=O)OC)cc1[N+](=O)[O-]
7 | 168 to 170 | CO/C=C(/C(=O)OC)c1ccccc1Oc1cc(O)ncn1
8 | 90 to 92 | CC(=O)Oc1ccccc1C(=O)NC(S(=O)C(C)C)C(Cl)(Cl)Cl (configuration not stated)
9 | 180 | C[Si](C)(C)C1=CC(=O)C([Si](C)(C)C)=CC1=O
10 | > 260 | Cc1ccc(-c2nc(N)nc(N)n2)cn1
11 | 137 | CC#CC(O)(Cn1cncn1)c1ccc(Oc2ccc(Cl)cc2)cc1Cl (configuration not stated)
12 | 265 | Nc1ccc(C23CC(C2)C(=O)NC3=O)cc1
13 | 127 to 128 | CCOC(=O)c1cnn(-c2ccc(F)cc2)c1O
14 | 101 to 103 | CCCc1nc2c(N)nc3cc(-c4ccccc4)ccc3c2n1CCCC(C)N(OC)C(=O)NC(C)C (configuration not stated)
15 | 156 to 161 | CCCCCCCCCCCCC1(Cn2ccnc2)SCC(CCCC)S1 (configuration not stated)
16 | 138 to 139 | O=C(CCC(=O)N1CCC[C@H]1C(=O)O)c1ccc(Br)cc1
17 | 267 to 269 | CCCCN(CCCC)c1cc(=O)n(-c2ccc(S(=O)(=O)O)cc2)[nH]1
18 | 157 to 158 | Cc1cc2ccccc2n1Nc1ccncc1F
19 | 150 to 151 | COc1ccc(N2CCN(c3c(C)c(C)c4c(c3C)C(O)C(C)(C)O4)CC2)cc1OC (configuration not stated)
20 | 239 to 240 | Cc1cc2c(c(O)c1O)C(=O)c1c(O)cccc1C2=O
21 | 202 | O=C(O)CON=c1c2nccc3c(Cl)ccc(c32)n2cccc12
22 | 91 to 92 | O=C1C2=C(CCCC2)C(=O)N1c1c(F)cc(F)cc1F
23 | 105 to 107 | COc1cc2c(cc1CCC#N)C(=O)CC(C)(C)O2
24 | 181 to 182 | CSC(Nc1cccnc1)=C(C#N)S(=O)(=O)c1ccc(Cl)cc1
25 | 162 to 163 | O=c1oc2ccc(Cl)cc2c(O)c1CCCOc1ccccc1

Row | melting point [°C] | SMILES
26 | 152 to 154 | O=C(c1cc2ccnc(Cl)c2[nH]1)N1CCCC1
27 | 104 to 106 | Cc1ccc(C(C)Oc2cnn(C(C)(C)C)c(=O)c2Cl)cc1 (configuration not stated)
28 | 105 to 108 | Cc1c(C(C)(C)C)cc(C(C)C)c(-c2c(C(C)C)cc(C(C)(C)C)c(C)c2O)c1O
29 | 274 to 275 | N#Cc1cnc2c(c1)[nH]c(=O)n2[C@H]1CC[C@H](O)CC1
30 | 100 | CCOC(=O)NN=COC(N)CC (configuration not stated)
31 | 40 to 42 | COCc1cccc(C(O)c2nc(OC)cc(OC)n2)c1N (configuration not stated)
32 | 100 to 102 | O=C(Oc1ccc([N+](=O)[O-])cc1)C(O)O
33 | 63 to 67 | O=C1C(CCO)Oc2ccccc2N1Cc1cccc(Cl)c1 (configuration not stated)
34 | 56 | O=[N+]([O-])c1c(F)cc(Br)c(OCCCl)c1Br
35 | 202 to 203 | CCOC(=O)c1cc2ccc3c(c2cc1OCC)OC(n1cccc1)=C(C#N)C3c1cccc([N+](=O)[O-])c1 (configuration not stated)
36 | 114 to 119 | Cn1c(=O)c2c(ncn2CCCN2CCC(C(=O)c3ccc(F)cc3)CC2)n(C)c1=O
37 | 142 | CCC(C(=O)c1ccc(Cl)cc1)n1ncn(-c2ccc(N3CCN(c4ccc(OC)cc4)CC3)nc2)c1=O (configuration not stated)
38 | 112 to 113 | CC(=O)c1ccc([N+](=O)[O-])c(Nc2cccc(-c3cccnc3)c2)c1
39 | 191 to 192 | NC(=O)Cc1cccc2c(-c3ccccc3)onc12
40 | 116 to 117 | CCCS(=O)(=O)c1nc[nH]n1
41 | 194 to 196 | CCCNc1cc(Nc2ccc(OC)cc2)ncn1
42 | 143 to 144 | COc1ccc(S(=O)(=O)Nc2ccccc2NC=O)cc1
43 | 173 to 174 | CC(C)(C)OC(=O)CCc1ccnc(-c2nc(=O)c3ccc(Br)cc3s2)c1
44 | 181 | CCCCCCCc1ccc(C(=O)c2ccc(C(=O)O)cc2)cc1
45 | 157 to 160 | Cc1nnnn1-c1ccccc1C(=O)O
46 | 208 to 209 | N#CN=C(NCCO)NCc1ccc(-c2csc(N=C(N)N)n2)o1
47 | 182 to 188 | Cn1ccc2cc(N3Cc4ccc(OCC(F)(F)F)cc4C3=O)ccc21
48 | 167 to 169 | CC(C)(C)OC(=O)NC1CCCCCC=CC2CC2(C(=O)NS(=O)(=O)C2CC2)NC(=O)C2CC(OC(=O)c3ccc(-n4cccn4)cc3)CN2C1=O (configuration not stated)
49 | 158 to 160 | Cc1c(N2C[C@H]3CCOC[C@@]3(N)C2)c(F)cc2c(=O)c(C(=O)O)cn([C@@H]3C[C@@H]3F)c12
50 | 208 | N#CN=C1SCCN1Cc1c(Cl)ccc(C(=O)O)c1Cl

Row | melting point [°C] | SMILES
51 | 113 | C=C(C)C(=O)OCCOC(=O)c1ccc2c(c1)C(=O)N(OS(=O)(=O)c1ccc(C)cc1)C2=O
52 | 150 to 151 | CCc1nn2c(N3CCNCC3)cc(C)nc2c1S(=O)(=O)c1ccccc1
53 | 116 to 117 | COc1ccc(CCNCC(O)c2ccc(OCc3ccccc3)cc2OCc2ccccc2)cc1OC (configuration not stated)
54 | 136 to 138 | O=C(O)c1cccc2c1CCC2Cl (configuration not stated)
55 | 77 to 78 | CCCCCCOC(=O)CCCC(C)(C)c1cc(O)c(C(C)(C)CCCC(=O)OCCCCCC)cc1O
56 | 186 to 187 | CC(C)=CC(=O)N1CCN(C(Cc2cccc(O)c2)c2ccccc2)CC1 (configuration not stated)
57 | 110 to 111 | CCn1cc(-c2cccc(C(F)(F)F)c2)c(=O)n1-c1cccc(C(F)(F)F)c1
58 | 52 to 53 | CNc1ncccc1[N+](=O)[O-]
59 | 129 to 131 | CN1CC(c2ccc(S(C)(=O)=O)cc2)=C(c2ccc(Cl)cc2)C1=O
60 | 243 to 245 | Cc1c(C(=O)OC(C)C)ncc2[nH]c3cccc(Oc4ccc(Cl)cn4)c3c12
61 | 133 to 135 | CC(C)N(Cc1ccc(Cl)c(Cl)c1)S(=O)(=O)c1cc2ccccc2s1
62 | 100 to 102 | Oc1ccccc1CCC1NCCS1 (configuration not stated)
63 | 70 | CCCCCCc1cc2c(cc1CNCC(=O)O)C(=O)CC2
64 | 93 to 95 | COCc1nc(C(=O)OC)c(C(=O)OC)[nH]1
65 | 156 to 157 | CCCOc1ccc(/C=C/C(=O)N2CCOCC2)cc1-c1nc2c(c(C)nn2CCC)c(=O)[nH]1
66 | 169 to 171 | CC(C(=O)O)c1ccc2cc(OCc3nc4ccccc4s3)ccc2c1 (configuration not stated)
67 | 176 to 178 | CNC(=N)Cc1nc(C(C)C)c(Sc2cc(Cl)cc(Cl)c2)n1C
68 | 100 to 103 | O=C1CCN(c2cc(Cl)ncn2)CC1
69 | 50 to 52 | C=CCONC(CCC)=C1C(=O)CC(CCC2OCCCO2)CC1=O (configuration not stated)
70 | 116 | CCCCCCCCCCCCCCN(C(=O)CCCCCCCCCCC)C1(N)OC(CO)C(O)C(O)C1C(=O)C(N)C(=O)CNC (configuration not stated)
71 | 235 to 237 | CC(c1ccccc1)c1n[nH]c2c1c(=O)n(-c1cccc(C(F)(F)F)c1)c1ncccc21 (configuration not stated)
72 | 201 to 203 | COc1ccc2c(c1)C(=O)c1ccc(C(=O)O)cc1CC2
73 | 335 to 336 | CC1=NNC(=O)c2cccc3[nH]cc1c23
74 | 174 to 176 | CCOc1cc2c(Nc3cc(OC)c(Cl)cc3Cl)c(C#N)cnc2cc1OCCC1CCN(C)CC1
75 | 172 to 174 | O=C(O)CCCNC(=O)c1cccc(NC(=O)c2ccccc2O)c1

Row | melting point [°C] | SMILES
76 | 310 to 312 | COc1cc2c3c(n(Cc4ccccc4)c(=O)c2cc1OC)-c1cc2c(cc1C3=O)OCO2
77 | 203 | O=C1CCC(C(=O)OC2c3ccccc3C(=O)N2c2ccc3ccc(Cl)nc3n2)CC1 (configuration not stated)
78 | 128 to 135 | CC1C(c2ccccc2)NC(c2ccccc2)C(C)C1OC(=O)CCCCCCCCC(=O)OC1C(C)C(c2ccccc2)NC(c2ccccc2)C1C (configuration not stated)
79 | 114 to 116 | CC(C)(CO)NC(=O)c1cc(F)c(F)cc1F
80 | 245 | O=C1CCCCC(CCc2nc3cc(Br)cnc3[nH]2)N1 (configuration not stated)
81 | 200 to 201 | COc1cc(OC)nc(NC(=O)N=NS(=O)(=O)C2SCC(=O)N2C)n1 (configuration not stated)
82 | 186 to 188 | Cc1cc(C)cc(NC(=O)Cc2ccc(OC3(C(=O)O)CCOCC3)cc2)c1
83 | 157 to 158 | CCOC(=O)Cc1ccc(-c2nc(COc3ccc(COc4nn(-c5ccccc5)cc4C=O)cc3OC)c(C)o2)cc1
84 | 139 to 141 | CC(C)(C)C(O)(C=Cc1ccc(Cl)cc1)Cn1ccnc1 (configuration not stated)
85 | 210 to 214 | COc1cncnc1N1CCN(CCCc2c[nH]c3ccc(CNS(C)(=O)=O)cc23)CC1C (configuration not stated)
86 | > 250 | Cc1nc2c(OCCNCc3ccccc3)cccc2[nH]1
87 | 200 | COc1ccc(N2CCN(CCc3ccc4[nH]c(=O)oc4c3)CC2)c2ccccc12
88 | 190 to 194 | O=C(O)C1=Cc2ccc(C(F)(F)F)cc2OC1C(F)(F)F (configuration not stated)
89 | 131 to 134 | Cc1cc(-n2ccnc2)ccc1N
90 | 228 | CN1CCCC(C2=C(C#N)C(c3cccc4nonc34)c3c[nH]nc3N2)C1 (configuration not stated)
91 | 150 to 151 | CNc1nnc(-c2ccccc2)c(=O)n1NC
92 | 188 to 189 | CCc1cc2c(c3c1[nH]c1ccc(O)cc13)C(=O)N(CCN(CC)CC)C2=O
93 | 137 | CNS(=O)(=O)c1ccc2ccccc2c1
94 | 204 to 206 | COC(=O)c1nc2n(n1)-c1ccccc1N(c1cccc(C(F)(F)F)c1)C2
95 | 26 to 28 | CNc1c(F)cccc1C(C)=O
96 | 124 to 126 | CCOC(=O)c1cc(C(=O)C(C)(C)Br)c(=O)[nH]c1C(=O)OCC
97 | 108 to 109 | CC(C#N)c1ccc2c(=O)c3ccccc3ccc2c1 (configuration not stated)
98 | 159 to 160 | COc1ccc(-c2cc3ccccc3[nH]2)cc1NC(=S)NCCNC(=O)OC(C)(C)C

Row | SMILES | melting point [°C]
99 | CCC(=O)OCC(=O)OC1C(CC)CC2C3CCC4=CC(=O)CCC4C3CCC21C (configuration not stated) | 101 to 104
100 | COC1=CC2=CCC3C(=CCC4(C)C(=O)CCC34)C2(C)CC1 (configuration not stated) | 153
101 | COP(=S)(OC)Oc1ncn(-c2ccccn2)n1 | 88 to 91
102 | O=C(O)CCCCCSC1c2ccccc2COc2ccc(OCc3ccc4ccc(Cl)cc4n3)cc21 (configuration not stated) | 160 to 166
